Common to all, as to format: cell-based
Test [1] concerns Aβ42. The test is described as follows: Screening for γ-secretase-modulating activity, Method 1: Aβ42 sandwich ELISA on SKNBE2 cell media. The following applies: SKNBE2 cells carrying APP 695 wild type. The method in brief:
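SKNBE2 cells expressing wild-type APP695 were treated with compound for 18 h in Ultraculture/1% glutamine. Secreted Aβ42 was quantified by sandwich ELISA (C-terminal capture, biotinylated 3D6, TMB, 450 nm), with WST-1 used as a toxicity check. IC50 was derived from 4-parameter fits of % inhibition or % of untreated control.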

In test [2] the test system is Aβtotal. The test is described as follows: Screening for γ-secretase-modulating activity, Method 1: Aβtotal sandwich ELISA on SKNBE2 cell media. The following applies: SKNBE2 cells carrying APP 695 wild type. The method in brief:
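SKNBE2 cells expressing wild-type APP 695 were treated with compound for 18 hours. Aβtotal in the medium was measured by sandwich ELISA (6E10 capture, biotinylated 4G8 detection, fluorogenic peroxidase read-out). IC50 came from a 4-parameter fit of % inhibition with top/bottom fixed at 100/0 and Hill slope 1, or as averaged IC50 from % of untreated control.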
In general terms: An ELISA detects its analyte on a solid surface through an enzyme-linked reagent.

Test [3] deals with Aβ42. The test is described as follows: Screening for γ-secretase-modulating activity, Method 2: Aβ42 Alphalisa on SKNBE2 cell supernatant. The note with it: Method 2, Table 3c, SKNBE2 cells carrying APP 695 wild type, overnight incubation. How it is done: (§1) Screening was carried out using SKNBE2 cells carrying the APP 695—wild type, grown in Dulbecco's Modified Eagle's Medium/Nutrient mixture F-12 (DMEM/NUT-mix F-12) (HAM) provided by Invitrogen (cat no. 10371-029) containing 5% Serum/Fe supplemented with 1% non-essential amino acids, 1-glutamine 2 mM, Hepes 15 mM, penicillin 50 U/ml (units/ml) en streptomycin 50 μg/ml. Cells were grown to near confluency.
(§2) The screening was performed using a modification of the assay as described in Citron et al (1997) Nature Medicine 3: 67. Briefly, cells were plated in a 384-well plate at 10^4 cells/well in Ultraculture (Lonza, BE12-725F) supplemented with 1% glutamine (Invitrogen, 25030-024), 1% non-essential amino acid (NEAA), penicillin 50 U/ml en streptomycin 50 μg/ml in the presence of test compound at different test concentrations. The cell/compound mixture was incubated overnight at 37° C., 5% CO2. The next day the media were assayed by two sandwich immuno-assays, for Aβ42 and Aβtotal.
(§3) Aβtotal and Aβ42 concentrations were quantified in the cell supernatant using the Aphalisa technology (Perkin Elmer). Alphalisa is a sandwich assay using biotinylated antibody attached to streptavidin coated donorbeads and antibody conjugated to acceptor beads. In the presence of antigen, the beads come into close proximity. The excitation of the donor beads provokes the release of singlet oxygen molecules that trigger a cascade of energy transfer in the acceptor beads, resulting in light emission. To quantify the amount of Aβ42 in the cell supernatant, monoclonal antibody specific to the C-terminus of Aβ42 (JRF/cAβ42/26) was coupled to the receptor beads and biotinylated antibody specific to the N-terminus of Aβ (JRF/AβN/25) was used to react with the donor beads. To quantify the amount of Aβtotal in the cell supernatant, monoclonal antibody specific to the N-terminus of Aβ (JRF/AβN/25) was coupled to the receptor beads and biotinylated antibody specific to the mid region of Aβ (biotinylated 4G8) was used to react with the donor beads.
(§4) To obtain the values reported in Table 3c, the data were calculated as percentage of the maximum amount of amyloid Beta 42 measured in the absence of the test compound. The sigmoidal dose response curves were analyzed using non-linear regression analysis with percentage of the control plotted against the log concentration of the compound. A 4-parameter equation was used to determine the IC50.
On the technique in general: Bead proximity is the source of the signal in Alpha formats.

The subject of test [4] is Aβtotal. The test is described as follows: Screening for γ-secretase-modulating activity, Method 2: Aβtotal Alphalisa on SKNBE2 cell supernatant. The following applies: Method 2, Table 3c, SKNBE2 cells carrying APP 695 wild type, overnight incubation. How it is done:
as §1, §2, §3, §4

The mark [5] stands for this setting: Table 3a, 18 hours, XLfit, top/bottom fixed to 100 and 0, hill slope 1.
Setting [6] is: Table 3b, non-linear regression of % of control, averaged IC50 values.

For the compound `Cc1ncn(-c2ccc(Nc3cccc4c3nc(-c3ccc(F)cc3)n4C(C)C)nc2)n1` [Compound 89], the IC50 (commonly the concentration that gives 50% inhibition) with Aβ42 [1] (setting [5]) is 326 nM; in the test with Aβ42 [1] (setting [6]) it was 324 nM; with Aβtotal [2] (setting [5]), more than 3000 nM; with Aβtotal [2] (setting [6]) it was more than 3000 nM; in the test on Aβ42 [3], 575 nM; in the test on Aβtotal [4] it was more than 10000 nM.
For the compound `COc1cc(Nc2cccc3c2nc(-c2ccc(Cl)s2)n3C(C)C)ccc1-n1cnc(C)n1` [Compound 121], the IC50 in the test with Aβ42 [1] (setting [6]) is 20 nM; in the test on Aβtotal [2] (setting [6]), more than 3000 nM; in the test with Aβ42 [3] it was 34 nM; in the test with Aβtotal [4], more than 10000 nM.
Consider `Cc1cn(-c2ccc(Nc3cccc4c3nc(-c3ccc(F)cc3)n4C)cn2)cn1` [Compound 68], for which the IC50 in the test on Aβ42 [1] (setting [5]) was 27 nM; in the test on Aβ42 [1] (setting [6]) it was 26 nM; in the test on Aβtotal [2] (setting [5]), more than 1000 nM; in the test on Aβtotal [2] (setting [6]) it was more than 1000 nM; in the test with Aβ42 [3] it was 35 nM; in the test on Aβtotal [4] it was more than 10000 nM.
As to `COc1cc(Nc2cccc3c2nc(-c2ccccc2F)n3C)ccc1-n1cnc(C)c1` [Compound 66], the IC50 is 27 nM with Aβ42 [1] (setting [5]); 24 nM in the test with Aβ42 [1] (setting [6]); more than 3000 nM in the test with Aβtotal [2] (setting [5]); more than 3000 nM with Aβtotal [2] (setting [6]); 21 nM in the test on Aβ42 [3]; more than 10000 nM in the test on Aβtotal [4].
Regarding `COc1cc(Nc2cccc3c2nc(SCC(C)C)n3C)ccc1-n1cnc(C)c1` [Compound 33], the IC50 with Aβ42 [1] (setting [5]) was less than 110 nM; in the test with Aβ42 [1] (setting [6]), less than 110 nM; in the test with Aβtotal [2] (setting [5]), more than 3000 nM; with Aβtotal [2] (setting [6]), more than 3000 nM; with Aβ42 [3] it was 245 nM; with Aβtotal [4], more than 10000 nM.
With `COc1nc(Nc2cc(F)cc3c2nc(-c2ccccc2Cl)n3C)ccc1-n1cnc(C)c1` [Compound 151], the IC50 is 5 nM in the test on Aβ42 [1] (setting [6]), more than 3000 nM with Aβtotal [2] (setting [6]), 11 nM in the test with Aβ42 [3] and 4900 nM in the test on Aβtotal [4].
Regarding `Cc1ncn(-c2c(F)cc(Nc3cccc4c3nc(-c3ccc(F)cc3)n4C)cc2F)n1` [Compound 102], the IC50 was 839 nM with Aβ42 [1] (setting [5]); 871 nM with Aβ42 [1] (setting [6]); more than 3000 nM in the test on Aβtotal [2] (setting [5]); more than 3000 nM with Aβtotal [2] (setting [6]); 1290 nM in the test on Aβ42 [3]; 8130 nM in the test on Aβtotal [4].
With `COc1cc(Nc2cccc3c2nc(C)n3Cc2ccccc2)ccc1-n1cnc(C)c1` [Compound 22], the IC50 was less than 110 nM in the test on Aβ42 [1] (setting [5]); less than 110 nM in the test with Aβ42 [1] (setting [6]); more than 3000 nM with Aβtotal [2] (setting [5]); more than 3000 nM in the test with Aβtotal [2] (setting [6]); 151 nM in the test with Aβ42 [3]; more than 10000 nM with Aβtotal [4].
`COc1cc(Nc2cccc3c2nc(-c2ccc(C(F)(F)F)nc2)n3C(C)C)ccc1-n1cnc(C)c1` [Compound 117]: the IC50 was 33 nM with Aβ42 [1] (setting [6]), more than 3000 nM with Aβtotal [2] (setting [6]), 28 nM in the test on Aβ42 [3] and more than 10000 nM in the test on Aβtotal [4].
Take `Cc1ncn(-c2ccc(Nc3cccc4oc(CC(C)C)nc34)nc2)n1` [Compound 87]: the IC50 in the test with Aβ42 [1] (setting [5]) was more than 3000 nM; in the test on Aβ42 [1] (setting [6]), more than 3000 nM; in the test on Aβtotal [2] (setting [5]), more than 3000 nM; in the test with Aβ42 [3], more than 10000 nM; with Aβtotal [4] it was more than 10000 nM.
`COc1nc(Nc2nc(C)cc3c2nc(-c2ccccc2Cl)n3C)ccc1-n1cnc(C)c1` [Compound 149]: the IC50 is 316 nM in the test with Aβ42 [1] (setting [6]), more than 10000 nM in the test on Aβtotal [2] (setting [6]), 195 nM in the test on Aβ42 [3] and 9770 nM with Aβtotal [4].
For the compound `COc1cccc(-c2nc3c(Nc4ccc(-n5cnc(C)n5)cc4)cccc3n2C(C)C)c1` [Compound 51], the concentration for half-maximal inhibition (IC50) in the test on Aβ42 [1] (setting [5]) was 53 nM; in the test with Aβ42 [1] (setting [6]), 58 nM; in the test on Aβtotal [2] (setting [5]), more than 3000 nM; in the test with Aβtotal [2] (setting [6]) it was more than 3000 nM; with Aβ42 [3], 79 nM; in the test with Aβtotal [4], more than 10000 nM.
Turning to `COc1cc(Nc2cccc3oc(-c4cccnc4)nc23)ccc1-n1cnc(C)c1` [Compound 86], the IC50 was more than 3000 nM in the test on Aβ42 [1] (setting [5]); more than 3000 nM in the test on Aβ42 [1] (setting [6]); more than 3000 nM in the test on Aβtotal [2] (setting [5]); more than 3000 nM in the test on Aβtotal [2] (setting [6]); more than 10000 nM in the test on Aβ42 [3]; more than 10000 nM with Aβtotal [4].
`Cc1ncn(-c2ccc(Nc3cccc4c3nc(C)n4C(C)C)cc2)n1` [Compound 20]: the IC50 with Aβ42 [1] (setting [5]), in the test on Aβ42 [1] (setting [6]), in the test on Aβtotal [2] (setting [5]), with Aβtotal [2] (setting [6]), in the test with Aβ42 [3] and with Aβtotal [4] was more than 3000 nM throughout.
In the case of `Cc1cn(-c2ccc(Nc3nccc4c3nc(-c3ccc(F)cc3)n4C)cc2F)cn1` [Compound 137], the IC50 was 50 nM with Aβ42 [1] (setting [6]), more than 3000 nM with Aβtotal [2] (setting [6]), 21 nM in the test with Aβ42 [3] and more than 10000 nM with Aβtotal [4].
As for `Cc1ncn(-c2ccc(Nc3cccc4c3nc(C)n4Cc3ccccc3)cc2)n1` [Compound 23], the IC50 in the test on Aβ42 [1] (setting [5]) was 1910 nM; in the test with Aβ42 [1] (setting [6]), 1860 nM; with Aβtotal [2] (setting [5]), more than 10000 nM; in the test on Aβtotal [2] (setting [6]), more than 10000 nM; in the test on Aβ42 [3], more than 3000 nM; in the test with Aβtotal [4], more than 3000 nM.
Regarding `CCn1c(CCC(F)(F)F)nc2c(Nc3ccc(-n4cnc(C)c4)c(OC)c3)cccc21` [Compound 35], the IC50 in the test with Aβ42 [1] (setting [5]) was 24 nM; in the test on Aβ42 [1] (setting [6]) it was 22 nM; in the test with Aβtotal [2] (setting [5]), more than 1000 nM; in the test with Aβtotal [2] (setting [6]) it was more than 10000 nM; with Aβ42 [3] it was 60 nM; with Aβtotal [4] it was more than 10000 nM.
With `CCOc1cc(C)c(-c2nc3c(Nc4ccc(-n5cnc(C)n5)c(OC)c4)cccc3o2)cc1C(C)C` [Compound 59], the IC50 in the test on Aβ42 [1] (setting [5]) was 7300 nM; in the test with Aβ42 [1] (setting [6]), 7760 nM; with Aβtotal [2] (setting [5]), 26400 nM; in the test with Aβtotal [2] (setting [6]), more than 30000 nM; with Aβ42 [3], more than 3000 nM; with Aβtotal [4], more than 3000 nM.

The values above are taken from patent publication US8772504B2, “Substituted benzoxazole, benzimidazole, oxazolopyridine and imidazopyridine derivatives as gamma secretase modulators” (Janssen Pharmaceuticals, Inc., priority 2009, dated 2014).
